Read-outs that look alike come from different tables or passages of the source.
Assays:
DENV2 strain 16681 = test: In vitro antiviral assay: infectious DENV titer from infected MDMΦs by LLC-MK2 plaque assay; format: cell-based, dengue virus serotype 2
MDMΦs = test: Cytotoxicity, MTS cell proliferation assay; format: cell-based, human
Protocol: Cytotoxicity of compounds was assessed by a cell proliferation assay for metabolic activity using a CellTiter 96 AQueous One Solution Cell Proliferation Assay (Promega) as per the manufacturer’s instructions. Briefly, 20 μl of a solution containing tetrazolium compound [3-(4,5-[…])-5-(3-carboxymethoxyphenyl)-2-(4-sulfophenyl)-2H-tetrazolium; MTS] and electron coupling reagent (phenazine ethosulfate) was added to cells covered or suspended in 100 μl of culture medium in a 96-well plate. Samples were incubated for approximately 4 hours (37°C, 5% CO2), and the absorbance at 490 nm (A490) was measured on a SpectraMax M5 microplate reader (Molecular Devices).

[1] = molecular target: T1, Human lysosome α-galactosidase (Homo sapiens, UniProt P06280); test: In vitro enzyme inhibition; format: biochemical; conditions: concentration required to inhibit the enzyme to 50% activity; read-out: IC50
T1 sequence (P06280 32-429): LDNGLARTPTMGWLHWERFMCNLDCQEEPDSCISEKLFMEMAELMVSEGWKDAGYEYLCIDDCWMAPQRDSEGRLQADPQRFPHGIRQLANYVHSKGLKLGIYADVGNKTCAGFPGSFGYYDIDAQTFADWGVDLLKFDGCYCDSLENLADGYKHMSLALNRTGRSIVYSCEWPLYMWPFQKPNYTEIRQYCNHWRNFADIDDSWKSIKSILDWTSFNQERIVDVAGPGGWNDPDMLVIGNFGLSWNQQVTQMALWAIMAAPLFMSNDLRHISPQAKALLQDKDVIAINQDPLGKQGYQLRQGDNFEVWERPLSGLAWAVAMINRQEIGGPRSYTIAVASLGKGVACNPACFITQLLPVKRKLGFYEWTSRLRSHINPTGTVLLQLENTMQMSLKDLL

ER α-glucosidase I = molecular target: T2, ER α-glucosidase I (Homo sapiens, UniProt Q13724); test: Free oligosaccharide analysis in MDMΦs: Glc3Man5GlcNAc1; format: cell-based; conditions: 48 h; for accumulation of Glc3Man5GlcNAc1: MDMΦs; for FOS representative of ER α-glucosidase I inhibition (Glc3Man5GlcNAc1): MNTD of iminosugar (NB-DNJ 100 μM), uninfected MDMΦs
T2 construct: endogenous in cells; host or cells: primary human monocyte-derived macrophages (MDMΦ)
T2 sequence (Q13724 1-837): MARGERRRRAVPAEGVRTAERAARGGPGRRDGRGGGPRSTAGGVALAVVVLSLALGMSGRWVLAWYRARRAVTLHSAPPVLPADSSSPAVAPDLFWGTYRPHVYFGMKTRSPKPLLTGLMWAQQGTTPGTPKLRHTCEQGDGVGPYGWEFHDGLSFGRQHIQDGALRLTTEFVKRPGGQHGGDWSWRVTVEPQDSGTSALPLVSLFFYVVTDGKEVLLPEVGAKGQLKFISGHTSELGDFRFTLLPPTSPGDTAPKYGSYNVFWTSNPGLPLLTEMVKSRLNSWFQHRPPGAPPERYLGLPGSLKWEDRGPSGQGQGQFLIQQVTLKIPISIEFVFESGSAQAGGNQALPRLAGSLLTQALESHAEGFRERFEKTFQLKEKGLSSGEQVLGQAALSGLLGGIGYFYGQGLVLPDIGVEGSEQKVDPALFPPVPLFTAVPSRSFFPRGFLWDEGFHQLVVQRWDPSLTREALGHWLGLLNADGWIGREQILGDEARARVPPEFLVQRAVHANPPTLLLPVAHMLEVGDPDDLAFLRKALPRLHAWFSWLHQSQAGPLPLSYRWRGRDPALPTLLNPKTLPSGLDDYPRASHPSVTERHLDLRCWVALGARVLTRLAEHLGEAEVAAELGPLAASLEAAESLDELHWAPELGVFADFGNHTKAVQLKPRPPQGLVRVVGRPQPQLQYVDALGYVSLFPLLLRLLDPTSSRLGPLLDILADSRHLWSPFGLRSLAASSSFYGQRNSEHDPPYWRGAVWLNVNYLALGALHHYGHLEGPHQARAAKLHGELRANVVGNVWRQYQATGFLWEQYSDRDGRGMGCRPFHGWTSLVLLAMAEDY
Protocol: (§1) MDMΦ were infected with DENV2 16681 diluted to a multiplicity of infection (MOI) of 1 in X-VIVO10 without supplements for 90 minutes (20°C, with rocking). Upon removal of virus, fresh MDMΦ growth medium without IL-4 but containing serial dilutions of drug or control was placed on the cells, and cells were incubated for 48 hours (37°C, 5% CO2). For collection of infectious virus, supernatant was harvested and centrifuged for 5 minutes (room temperature, 400 x g) to pellet any cells/debris, and supernatants were aliquoted and stored at -80°C until analysis by plaque assay. In the case of FOS and GSL assays where MDMΦ were uninfected, treatments were essentially as above except that no virus was added and cells were washed three times with sterile PBS after 24 or 48 hours as per sample time point. On the third wash, cells were removed from tissue culture plastic by mechanical disruption (scraping) and transferred to microcentrifuge tubes for centrifugation (room temperature, 4000 x g, 5 minutes). Cells were lysed by three cycles of freeze-thawing (alternating room temperature and –80°C) in deionised H2O and stored at –80°C for subsequent protein, FOS, or GSL assay.
MDMΦ FOS were detected as previously described by Alonzi et al.. Cells were cultured in 6-well plates as described above, and protein lysates were prepared according to the freeze/thaw protocol. Following cell lysis, samples were subjected to mixed-bed ion exchange and then lyophilised. FOS were labelled with 2-aminobenzoic acid (2-AA) and purified using a DPA-6S column (Sigma). Unconjugated 2-AA was removed by phase splitting with ethyl acetate, and samples were lyophilised and resuspended in water and then purified using a con-A column. Glycans were separated by normal phase-high performance liquid chromatography (NP-HPLC), and peak area was used to assess molar quantity in comparison to standards of known identity and quantity. FOS generation was normalised to protein concentration based on a modified Bradford assay as previously described. Briefly, cell lysates were added in a 1:1 volumetric ratio to 1x Bradford Quick Start Reagent (Bio-Rad) and incubated at 20°C for 5 minutes. Absorbance values (Axxx) at 595 nm and 420 nm were measured, and the ratio of A595 to A420 was used to determine protein concentration in comparison to a serially diluted standard of bovine serum albumin.

DENV = test system: DENV; parameters: method as in PMID 23070155, PMID 23376501, PMID 22020302, PMID 22867971; conditions: post-exposure therapeutic administration; cited from earlier work
[2] = test system: lysosomal β-N-acetylhexosaminidase; test: Free oligosaccharide analysis in MDMΦs: hexosaminidase-related FOS; format: cell-based, human; conditions: MNTD, 48 h
Protocol: as §1, with “On the third wash, cells were removed from tissue culture plastic by mechanical disruption (scraping) and transferred to microcentrifuge tubes for centrifugation (room temperature, 4000 x g, 5 minutes). Cells were lysed by three cycles of freeze-thawing (alternating room temperature and –80°C) in deionised H2O and stored at –80°C for subsequent protein, FOS, or GSL assay.” left out
MDMΦ FOS were detected as previously described by Alonzi et al.. […] Glycans were separated by normal phase-high performance liquid chromatography (NP-HPLC), and peak area was used to assess molar quantity in comparison to standards of known identity and quantity. […] Absorbance values (Axxx) at 595 nm and 420 nm were measured, and the ratio of A595 to A420 was used to determine protein concentration in comparison to a serially diluted standard of bovine serum albumin.

[3] = Dengue virus, DENV2, LLC-MK2, 48 h, MDMΦs infected with DENV2 MOI 1, drug 48 h, infectious titer by plaque assay, table values with 95% confidence interval in parentheses, read-out: EC50

Structure (SMILES)	EC50 (DENV2 strain 16681; [3])	Enhancement (fold improvement of antiviral EC50 versus parent compound) (DENV2 strain 16681; EC50 parent / EC50 derivative, parent DNJ or castanospermine)	EC50 (DENV2 strain 16681; MDMΦs infected with DENV2 MOI 1, drug 48 h, infectious titer by plaque assay, table values with 95% confidence interval in parentheses, read-out: EC50)	MNTD (maximum non-toxic dose tested) (MDMΦs)	IC50 [1]	accumulation of Glc3Man5GlcNAc1 (ER α-glucosidase I; 1 μM, all donors)	accumulation of Glc3Man5GlcNAc1 (ER α-glucosidase I; 31.6 and 100 μM)	protection in lethal mouse models of DENV infection (DENV)	concentration up to which cytotoxicity was not detected (MDMΦs)	FOS representative of ER α-glucosidase I inhibition (Glc3Man5GlcNAc1) (ER α-glucosidase I)	FOS generated by inhibition of lysosomal β-N-acetylhexosaminidase [2]	EC50 (DENV2 strain 16681; Dengue virus, DENV2, LLC-MK2, 48 h, MDMΦs, DENV2, 48 h, read-out: 95% CI for antiviral EC50)
CCCC(=O)O[C@H]1CN2CC[C@H](O)[C@@H]2[C@@H](O)[C@@H]1O [Celgosivir, 6-O-butanoyl-castanospermine]	5 µM	7 fold	5.17 µM	100 µM	> 1000 µM	not Glc3Man5GlcNAc1	increasing accumulation of Glc3Man5GlcNAc1	protection in lethal mouse models	–	–	–	–
CCCCN1C[C@H](O)[C@@H](O)[C@@H](O)[C@H]1CO [NB-DGJ]	–	–	–	100 µM	–	–	–	–	> 100 µM	fail to produce detectable ER α-glucosidase associated FOS	do produce FOS generated by inhibition of lysosomal β-N-acetylhexosaminidase	–
CCCCN1C[C@H](O)[C@@H](O)[C@H](O)[C@H]1CO [NB-DNJ, N-butyl-DNJ]	10.6 µM	–	–	100 µM	–	not Glc3Man5GlcNAc1	–	protection in lethal mouse models	–	accumulation of peaks representative of inhibition of both α-glucosidases	–	7.77 to 14.5 µM
CCCCCCCCCN1C[C@H](O)[C@@H](O)[C@@H](O)[C@H]1CO [NN-DGJ]	–	–	–	31.6 µM	35.5 µM	–	–	–	–	fail to produce detectable ER α-glucosidase associated FOS	do produce FOS generated by inhibition of lysosomal β-N-acetylhexosaminidase	–

— article PMC4790851, “Iminosugars Inhibit Dengue Virus Production via Inhibition of ER Alpha-Glucosidases—Not Glycolipid Processing Enzymes” (PLoS Neglected Tropical Diseases, 2016)
